Several values for one entry are separate records, joined by “and”; a condition that tells them apart may be missing. Equal entries are not always repeated. Marks after values point to notes of the source that are not given here.
What was measured:
rat TG-macs = assay: Viability of thioglycollate-elicited peritoneal macrophages; format: cell-based; settings: 72-hour incubation; no effect at concentrations as high as stated
Description: Female Lewis rats (175 to 200 g) were purchased from Harlan Sprague Dawley (Indianapolis, IN, USA) and were allowed to acclimate for 1 week. To obtain peritoneal macrophages, rats were dosed intraperitoneally with an aged thioglycollate (TG) medium (20 ml/kg) and euthanized 3 days later. The peritoneal cavity of the animals was lavaged with 60 ml ice-cold phosphate-buffered saline to collect peritoneal exudate. The TG-elicited macrophages in the peritoneal fluids were obtained after a red cell lysing step and a 2-hour adherence in folate-free RPMI 1640 medium (Mediatech, Manassas, VA, USA) containing 1% heat-activated fetal calf serum and antibiotics. The purity of the resulting macrophage population (herein referred to as rat TG-macs) was determined to be ~90% pure based on CD11b/c expression (data not shown). […] Unless otherwise specified, all cells were maintained in the folate-free RPMI 1640 medium containing 10% heat-activated fetal calf serum and antibiotics (FFRPMI) under a 5% CO2 atmosphere.
Unlike RAW264.7 cells, rat TG-macs display little proliferative activity ex vivo and therefore were used in our studies to represent inflammatory macrophages in a low proliferative state. […] LPS (5 μg/ml) and IFNγ (100 ng/ml) were then added to the treated cells 24 hours prior to the end of incubation to stimulate the release of cytokines/chemokines, which were then detected with a rat cytokine antibody array.

[1] = system: TNFα production in RAW264.7 cells; assay: LPS-stimulated TNFα production (ELISA); format: cell-based, murine
Description: RAW264.7 cells in 96-well plates (3.5 × 10^4 cells/well) were treated with 10-fold serial dilutions of EC0746 (≤1 μM) in FFRPMI medium without and with 100-fold molar excess of FA. After a 2-hour exposure, the drug-containing media were replaced and the cells were allowed to incubate further for 70 hours (referred in the text as a 70-hour chase). In comparison, the cells were also treated continuously with AMT for 72 hours. Four hours prior to the end of incubation, LPS was added to the treated cells at a final concentration of 100 ng/ml. Then 100 μl culture supernatants were collected for TNFα analysis by ELISA. The cell viability was assessed by adding XTT to the remaining media for an additional 4 hours following the manufacturer's instructions. To evaluation of a cytostatic effect, RAW264.7 cells seeded at 1 × 10^6 cells/well in six-well plates were subjected to 2-hour exposure and a 70-hour chase with 0, 0.1, 10, and 1000 nM EC0746 without and with excess FA. At the end of the incubation (no LPS added), the surviving cells (that is, still viable cells) were recovered and redistributed in equal numbers in fresh medium for an additional 72 hours. The cell proliferation was again assessed by the XTT assay. All results were expressed as the percentage absorbance (minus background) relative to the untreated control cells.

[2] = system: adjuvant-induced arthritis; assay: Rat adjuvant-induced arthritis (AIA) model; format: in vivo; settings: for Inhibition in paw edema (%): paw weight day 24; for Body weight change (%): day 24 relative to day 10
Description: The rats were then inoculated intradermally (at the base of tail) with 0.5 mg heat-killed M. butyricum (BD Diagnostic Systems) in 100 μl light mineral oil (Sigma-Aldrich, St Louis, MO, USA). […] For each study, two or three rats from the same colony were not induced for arthritis and were used as healthy controls.
Unless noted otherwise, all drug treatments started on day 10 after arthritis induction and lasted for two consecutive weeks with biweekly (BIW, Mondays and Thursdays) or once-weekly (QW, Mondays) dosing regimens.
EC0746 was given subcutaneously (s.c.) in a dosing range of 25 to 1,000 nmol/kg (QW or BIW); MTX was given s.c. or orally at 250 nmol/kg (BIW) or 1,650 nmol/kg (QW); and etanercept (10 mg/kg) was given s.c. once every 3 days for a 12-day span. The QW MTX dosing regimen was to mimic MTX administration in humans, and this particular dose of 1,650 nmol/kg per week (that is, 0.75 mg/kg per week) was reportedly active as an intraperitoneal agent in the AIA model. To distinguish the anti-inflammatory mechanisms of EC0746 and MTX in vivo, a therapeutically irrelevant folate-containing competitor (EC0923, molecular weight 672) was used in 500-fold molar excess to block the activities of EC0746 and MTX at 250 nmol/kg (BIW).
Formalin-fixed hind paws were examined by a board-certified veterinary radiologist who had no knowledge of the study groups. Specific criteria were used to establish a numerical grade of severity for each radiographic change: increased soft tissue volume (0 to 4), narrowing or widening of joint spaces (0 to 5), subchondral erosion (0 to 3), periosteal reaction (0 to 4), osteolysis (0 to 4), subluxation (0 to 3), and degenerative joint changes (0 to 3). Scores are limited to the tarsus, and the maximum possible score per foot was 26 [39]. The histopathological analysis was also performed in a blind fashion by an independent contract laboratory (Bolder BioPATH Inc., Boulder, CO, USA). The arthritic ankles were scored on a scale of 0 to 5 for inflammation, bone resorption, pannus formation, and cartilage damage, with a maximal histology score of 20 per foot.

[3] = Preliminary short-term toxicity / MTD in folate-deficient healthy rats; format: in vivo, rat; settings: folate-deficient rats
Description: The short-term toxicity and MTD of EC0746 and AMT were evaluated in healthy rats following the standard BIW subcutaneous dosing regimen used for efficacy studies. Further, these animals were put on a folate-deficient diet for ~20 days before treatment to match the folate deficiency status of AIA rats used for therapy. The folate-deficient but nonarthritic animals were thus given increasing doses of EC0746 and AMT for two consecutive weeks on a BIW basis. […] Standard hematologic and blood chemistry parameters were examined as needed along with histopathology.

[4] = target: T1, human FRβ (CHO-FRβ cells) (Homo sapiens, UniProt P14207); assay: Relative affinity assay: displacement of [3H]FA from CHO-FRβ cells; format: binding; settings: 37°C, competitor of [3H]FA, inverse molar ratio to displace 50%
T1 construct: host or cells: CHO-K1 cells
Description: The relative affinities of EC0746, AMT, and MTX were determined according to a previously established method except that both KB cells and CHO-FRβ cells were used as the sources of FR [33]. KB cells are a human cancer cell line known for elevated expression of FRα. CHO-FRβ cells were obtained from Manohar Ratnam, Department of Biochemistry and Cancer Biology, The University of Toledo (Toledo, OH, USA). This cell line was originally generated by stable integration and amplification of a human FRβ cDNA expression construct in CHO-K1 cells.

[5] = preliminary study, 500 nmol/kg s.c. biweekly, low starting arthritis
[6] = preliminary study, 500 nmol/kg s.c. biweekly, more established disease
[7] = s.c., 25 nmol/kg biweekly from day 10
[8] = s.c., 100 nmol/kg biweekly from day 10
[9] = s.c., 250 nmol/kg biweekly from day 10
[10] = s.c., 250 nmol/kg biweekly plus 500-fold excess EC0923
[11] = s.c., 250 nmol/kg biweekly, alone
[12] = s.c., 500 nmol/kg biweekly from day 10
[13] = s.c., 1,000 nmol/kg once weekly

T1 sequence (P14207 17-255): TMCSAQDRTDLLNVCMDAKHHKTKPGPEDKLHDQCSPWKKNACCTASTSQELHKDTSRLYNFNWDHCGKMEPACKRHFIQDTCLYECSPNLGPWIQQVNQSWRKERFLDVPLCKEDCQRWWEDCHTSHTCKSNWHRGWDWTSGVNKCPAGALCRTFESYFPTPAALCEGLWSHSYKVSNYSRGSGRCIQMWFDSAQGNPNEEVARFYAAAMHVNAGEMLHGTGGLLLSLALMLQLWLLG

## Nc1nc(N)c2nc(CNc3ccc(C(=O)N[C@@H](CCC(=O)NNC(=O)OCCSSC[C@H](NC(=O)[C@H](CCC(=O)NC[C@H](O)[C@@H](O)[C@H](O)[C@H](O)CO)NC(=O)[C@H](CCC(=O)O)NC(=O)[C@H](CCC(=O)NC[C@H](O)[C@@H](O)[C@H](O)[C@H](O)CO)NC(=O)[C@H](CCC(=O)O)NC(=O)[C@H](CCC(=O)NC[C@H](O)[C@@H](O)[C@H](O)[C@H](O)CO)NC(=O)CC[C@H](NC(=O)c4ccc(NCc5cnc6nc(N)[nH]c(=O)c6n5)cc4)C(=O)O)C(=O)O)C(=O)O)cc3)cnc2n1 [EC0746]
Rat TG-macs
  Concentration affecting TG-macs viability: > 10 µM
[1]; 2-hour pulse, 70-hour chase, LPS 100 ng/ml last 4 hours, read-out: Relative 50% inhibitory concentration, TNFα after LPS stimulation
  IC50: ~1.6 nM
[1]; 100-fold molar excess FA
  TNFα effect competitive by excess FA: 100%
[2]; [5]
  Improvement in paw edema (percentage increase in paw weight): ~ 10 fold
  Improvement in splenomegaly (percentage increase in spleen weight): threefold
[2]; preliminary study, 500 nmol/kg s.c. biweekly, mean starting arthritis score ~0 on day 10, score max 16
  Arthritis score maintained throughout study: ~ 1
[2]; preliminary study, 500 nmol/kg s.c. biweekly, mean starting arthritis score ~2 (established disease)
  Maximum reduction in arthritic scores: ~ 50%
[2]; [6]
  Improvement in paw edema (percentage increase in paw weight): ~ 2.5 fold
  Improvement in splenomegaly (percentage increase in spleen weight): twofold
[2]; [7]
  Splenomegaly (percentage increase in spleen weight relative to healthy rats): 73 ± 8^e %
  Inhibition in paw edema (%): 0 ± 25^d %
[2]; s.c., 25 nmol/kg biweekly
  Body weight change (%): -17 ± 1%
[2]; [8]
  Splenomegaly (percentage increase in spleen weight relative to healthy rats): 52 ± 13^e %
  Inhibition in paw edema (%): 35 ± 11^d %
[2]; s.c., 100 nmol/kg biweekly
  Body weight change (%): -14 ± 1%
[2]; s.c., 250 nmol/kg biweekly
  Animals with no lesions (histopathology of ankle): three out of five
  Decrease in summed histology scores: 94%
  Reduction in dorsal to ventral paw thickness: 94%
  Body weight change (%): -0.5 ± 3%
[2]; [9]
  Splenomegaly (percentage increase in spleen weight relative to healthy rats): 25 ± 6^e %
  Inhibition in paw edema (%): 91 ± 4^d %
[2]; [10]
  Decrease in inflammation score (histology): 24%
  Decrease in summed histology scores: ~ 19%
  Reduction in dorsal to ventral paw thickness: 22%
[2]; s.c., 250 nmol/kg biweekly plus 500-fold molar excess EC0923 (125 μmol/kg), all clinical parameters
  Anti-arthritic activity with co-administered EC0923: nearly completely blocked
[2]; s.c., 250 nmol/kg biweekly plus EC0923 125 μmol/kg
  Radiographic analysis of arthritic paws: significant joint erosions
[2]; [11]
  Anti-arthritic activity (arthritis score, body weight, paw and spleen weights): highly effective
  Radiographic analysis of arthritic paws: minimal radiographic changes
[2]; s.c., 250 nmol/kg per dose biweekly, printed >3-fold to fourfold
  Improvement in splenomegaly: > 3 fold
[2]; [12]
  Splenomegaly (percentage increase in spleen weight relative to healthy rats): 37 ± 7%
  Inhibition in paw edema (%): 91 ± 9%
[2]; s.c., 500 nmol/kg biweekly
  Body weight change (%): 0.4 ± 4%
[2]; [13]
  Loss of original body weight due to arthritis progression: ~ 7%
  Splenomegaly (percentage increase in spleen weight relative to healthy rats): 39 ± 5%
  Body weight change (%): -7 ± 3%
[2]; s.c., 1,000 nmol/kg once weekly (days 10 and 17)
  Inhibition in paw edema (%): 72 ± 12%
[3]; compared with AMT
  Gastrointestinal-associated side effects at respective MTD doses: less of the gastrointestinal-associated side effects than AMT
[3]; s.c., ratio of MTDs
  Difference in toxicity versus AMT (less toxic): ~ 40 fold and 40 fold
[4]
  Relative affinity value (FA = 1): 0.27
